Test [1] relates to S. aureus ATCC 25923. Description: Microbroth dilution assay of antimicrobial susceptibility (MIC). In kind it is cell-based, Staphylococcus aureus. The settings on record: microdilution, CAMHB, 37° C. How it is done:
It is described below, using E. coli ATCC® 25922, S. aureus ATCC® 25923, and P. aeruginosa ATCC® 27853. Prepare 0.0128 g DAA in 10 mL dH2 O (or 95% EtOH, methanol or DMSO if H2 O insoluble)=1280 μg/mL (stock solution). Dilute DAA stock solution 1:10 with CAMHB (Cation-Adjusted Mueller Hinton Broth): 0.5 mL DAA stock solution+4.5 mL CAMHB=128 μg/mL (DAA working solution). Pipette 100 μl of sterile CAMHB per well into columns 2-12 of rows A-G using Eppendorf repeater pipette. Pipette 100 μl per well of sterile-filtered DAA working solution into columns 1 and 2 of rows A, C, E, G using Jensen electric pipette. Mix and transfer 100 μl from column 2 to 3 of rows A, C, E, G using Jensen pipette. Repeat to column 12 then discard 100 μl from column 12. Rows B, D and F are positive growth control lanes for each organism and contain only CAMHB and the organism--no DAA. Row H is the media additive control lane, if necessary (e.g. MeOH, EtOH, DMSO etc.). The concentration of the media additive is obtained by doing a 1:10 dilution of the additive with CAMHB (0.5 mL additive+4.5 mL CAMHB). Row G is considered to be "negative growth control" and is loaded with only CAMHB and the DAA. Inoculate 0.5 mL TSB (Trypticase Soy Broth) tubes with 3 single colonies each of E. coli, S. aureus, and P. Aeruginosa from TSA plates using sterile needle. Incubate @ 37° C. for 4-6 hr. Measure out 100 mL CAMHB using the sterile 100 mL volumetric flask. Pour the excess into a sterile reagent reservoir. Pipette 0.5 mL and discard, leaving 99.5 mL in each of the 3-Erlenmeyer flasks. Set aside. Use the excess CAMHB for the 1:10 dilution of inoculum: 0.5 mL inoculum+4.5 mL CAMHB. Perform a 1:200 dilution of inoculum: 0.5 mL of 1:10 diluted inoculum+99.5 mL CAMHB from previous step. Pipette 100 μl (using Eppendorf repeater pipette) E. coli into each well in columns 1-12 of rows A and B and columns 1-4 of row H (if media additive control lane necessary). Pipette 100 μl P. aeruginosa into each well in columns 1-12 of rows C and D and columns 5-8 of row H (if media additive control lane is necessary). Pipette 100 μl S. aureus into each well in columns 1-12 of rows E and F and columns 9-12 of row H (if media additive control lane is necessary). Incubate microtiter plates @ 37° C. for 18 hrs. The lowest concentration of antimicrobial agent that results in significant inhibition of visible growth represents the MIC (Minimal Inhibitory Concentration).

Test [2] relates to E. coli ATCC 25922. The description is as above. In kind it is cell-based. The settings on record: Escherichia coli, ATCC25922; microdilution, CAMHB, 37° C., 18 hrs. How it is done:
It is described below, using E. coli ATCC® 25922, S. aureus ATCC® 25923, and P. aeruginosa ATCC® 27853. Prepare 0.0128 g DAA in 10 mL dH2 O (or 95% EtOH, methanol or DMSO if H2 O insoluble)=1280 μg/mL (stock solution). Dilute DAA stock solution 1:10 with CAMHB (Cation-Adjusted Mueller Hinton Broth): 0.5 mL DAA stock solution+4.5 mL CAMHB=128 μg/mL (DAA working solution). Pipette 100 μl of sterile CAMHB per well into columns 2-12 of rows A-G using Eppendorf repeater pipette. Pipette 100 μl per well of sterile-filtered DAA working solution into columns 1 and 2 of rows A, C, E, G using Jensen electric pipette. Mix and transfer 100 μl from column 2 to 3 of rows A, C, E, G using Jensen pipette. Repeat to column 12 then discard 100 μl from column 12. Rows B, D and F are positive growth control lanes for each organism and contain only CAMHB and the organism--no DAA. Row H is the media additive control lane, if necessary (e.g. MeOH, EtOH, DMSO etc.). The concentration of the media additive is obtained by doing a 1:10 dilution of the additive with CAMHB (0.5 mL additive+4.5 mL CAMHB). Row G is considered to be "negative growth control" and is loaded with only CAMHB and the DAA. Inoculate 0.5 mL TSB (Trypticase Soy Broth) tubes with 3 single colonies each of E. coli, S. aureus, and P. Aeruginosa from TSA plates using sterile needle. Incubate @ 37° C. for 4-6 hr. […]

For test [3], the system named is ASPC-1. The test is described as follows: Antineoplastic activity, fluorescence based live-cell/dead cell ratio. The settings on record: Homo sapiens, ASPC1, ASPC-1. How it is done: (§1) Values of IC50 (inhibitory concentration 50%) were calculated from the relative percent transmitted light as detected on a fluorescence 96 well plate reader.
Test [4] relates to ZR-75-1. The test is described as above. The settings on record: Homo sapiens, ZR-75-1, ZR-75-1. How it is done:
as §1

Test [5] has as its system 41-SK. Described as above. Further details: species or system human. How it is done: as §1
Test [6] has as its system S. aureus. The settings on record: taken from Antibiotics in Laboratory Medicine; cited from earlier work.
The test system of test [7] is C. albicans ATCC 90028. Description: In vitro antifungal susceptibility assay adapted from NCCLS (MIC). The class given is cell-based, Candida albicans. How it is done: (§2) Compounds of the invention also display antifungal activities. […] Using C. albicans ATCC® 90028, C. neoformans ATCC® 90112 and T. glabrata ATCC® 90030, the protocol is performed as follows:
(§3) Prepare 0.0128 g DAA in 10 mL dH2 O (or other if H2 O insoluble)=1280 μg/mL (stock solution). Dilute DAA stock solution 1:10 with RPMI-1640: 0.5 mL DAA stock solution+4.5 mL RPMI-1640=128 μg/mL (DAA working solution).
(§4) Inoculate rows A-H, columns 2-12 with 100 μl of RPMI-1640 using Eppendorf repeater pipette. Inoculate rows A-C columns 1 and 2 with 100 μl of 1st antibiotic (i.e. DAA-1) using electronic pipette. Inoculate rows E-G columns 1 and 2 with 100 μl of 2nd antibiotic (i.e. DAA-2) using electronic pipette. […] Plate is now ready for fungal inocula, which involves pipetting 100 μl of the inocula into all wells in rows A-C columns 1-12 and rows E-G columns 1-12. […]
(§5) Five colonies greater than 1 mm in diameter are suspended in a spectrophotometer cuvette containing 5 mL of sterile, 0.85% saline (colonies are obtained from 24 hrs. old Candida and Torulopsis cultures, while Cryptococcus colonies are chosen from 48 hrs. old cultures). Spectrophotometer is set to read % transmission at a wavelength of 530 nm, and is standardized using two cuvettes. […] Fungal inoculum is now prepared and ready to be introduced to microplates. […]

Test [8] relates to C. neoformans ATCC 90112. Described as above. The settings on record: Cryptococcus neoformans, ATCC90112; RPMI-1640; read-out: MIC. In kind it is cell-based, Cryptococcus neoformans. How it is done: as §2, §3, §4, §5
Test [9] relates to T. glabrata ATCC 90030. The test is described as above. In kind it is cell-based, Torulopsis glabrata. The settings on record: Nakaseomyces glabratus, ATCC90030; RPMI-1640; read-out: MIC. How it is done: as §2, §3, §4, §5
The test system of test [10] is Escherichia coli ATCC 25922. The test is described as follows: Macrobroth dilution testing for antimicrobial activity (MIC). The class given is cell-based. The settings on record: ATCC25922, 18 h, macrodilution, read-out: Minimum Inhibitory Concentration. How it is done: (§6) A working antimicrobial solution was prepared by diluting the test compound in Mueller Hinton Broth (MHB) to the highest final concentration desired. The test was performed in 13×100 mm test tubes. Two mL of the working solution of test compound were added to test tube 1 of the dilution series. To each remaining tube, 1.0 mL of MHB was added. A sterile pipette was used to transfer 1.0 mL from tube 1 to tube 2. After thorough mixing 1.0 mL was transferred (with a separate pipette for this and each succeeding transfer) to tube 3. This process was continued to the next to last tube from which 1.0 mL was removed and discarded. The last tube received no antimicrobial agent and served as a growth control. The inoculum was prepared and adjusted to contain […] by adjusting the turbidity of a broth culture to match to 0.5 McFarland standard. It was then further diluted 1:200 in broth. One mL of the adjusted inoculum was added to each test tube. The final concentrations of antimicrobial agents in this test were half those of the initial dilution series because of the addition of an equal volume of inoculum in broth. Tubes were incubated at 35° C. for 18 hours. […] A very faint haziness or a small button is usually disregarded.

Test [11] has as its system Pseudomonas aeruginosa ATCC 27853. The test is described as above. The class given is cell-based. The settings on record: ATCC27853, 18 h, macrodilution, read-out: Minimum Inhibitory Concentration. How it is done:
as §6

Test [12] concerns Staphlococcus aureus ATCC 25923. The test is described as above. The class given is cell-based. The settings on record: Staphylococcus aureus, ATCC25923, 18 h, macrodilution, read-out: Minimum Inhibitory Concentration. How it is done:
as §6

Test [13] deals with E. coli ATCC 25922. The settings on record: control limits, Gentamicin 10 mcg disk; cited from earlier work.
The test system of test [14] is S. aureus ATCC 25923. The settings on record: control limits, Gentamicin 10 mcg disk; cited from earlier work.
Test [15] has as its system P. aeruginosa ATCC 27853. The settings on record: control limits, Gentamicin 10 mcg disk; cited from earlier work.
Test [16] relates to Hymenolepis nata. The settings on record: U.S. Pat. No. 3,862,945; cited from earlier work.
Where [17] appears, read: Staphylococcus aureus, ATCC25923, 18 h, read-out: MIC.

In brackets after ≈: the same amount, converted by molar mass. Read-outs that look alike come from different tables or passages of the source.

With `Cc1cc2cc3c(C)c[n+]([O-])cc3cc2[n+]([O-])c1` [Derivative No. 7], the MIC in [1] (setting [17]) was found to be 0.125 µg/mL (≈ 0.52 µM); in test [2], 4 µg/mL (≈ 16.6 µM). In addition, the IC50 in test [3] worked out at 9.3 µg/mL; in test [4], 1.9 µg/mL; in test [5] (Homo sapiens, read-out: IC50) it was 11.3 µg/mL.

With `Cc1cc2cc3c(C)c[n+](C)cc3cc2[n+](C)c1` [Example 8.4, N,N'-dimethyl-1,8-DAA-3,6-(Me)2 tetrafluoroborate hemihydrate], the IC50 amounted to 62.5 µg/mL in [3]; 38.3 µg/mL in test [4]; 35.9 µg/mL in [5] (Homo sapiens, read-out: IC50).

Turning to `CN(C)C1C(=O)C(C(N)=O)=C(O)C2(O)C(=O)C3=C(O)c4c(O)cccc4C(C)(O)C3CC12` (centres unmarked) [Tetracycline], the MIC in test [6] was 0.5 to 32 µg/mL.

Turning to `Cc1cncc2cc3c(C)cncc3cc12` [Example 17], in [1] (setting [17]), the MIC turned out to be 64 µg/mL (≈ 307 µM).

For `O=C(O)c1cn(C2CC2)c2cc(N3CCNCC3)c(F)cc2c1=O` [Ciprofloxacin], the MIC in test [6] was 0.25 to 1 µg/mL.

In the case of `Cc1cnc2c(c1)C(=O)c1c(C)cncc1C2=O` [Example 14], the MIC is 1 µg/mL (≈ 4.2 µM) in test [1] (setting [17]); 8 µg/mL (≈ 33.6 µM) in [7] (Candida albicans, ATCC90028, RPMI-1640, read-out: MIC); 4 µg/mL (≈ 16.8 µM) in test [8]; 4 µg/mL (≈ 16.8 µM) in test [9].

Regarding `Cc1cnc2cc3cncc(C)c3cc2c1` [Derivative No. 1], the MIC in test [10] was 64 µg/mL (≈ 307 µM); in test [11], above 64 µg/mL; in test [12], 4 µg/mL (≈ 19.2 µM); in [1] (18 hrs, listed as 1,8-DAA-3,6-(Me)2.HCl) it was 32 µg/mL (≈ 154 µM); in test [7] (RPMI-1640, listed as 1,8-DAA-3,6-(Me)2.HCl), 64 µg/mL (≈ 307 µM). The half-inhibitory concentration (IC50) in [3] came out at 58 µg/mL; in test [4] it was 47.3 µg/mL; in test [5] (listed as 1,8-DAA(Me)2 · HCl), 139.2 µg/mL.

As for Gentamicin, in [6], the MIC was 0.25 to 16 µg/mL. The control zone diameter in test [13] is 19-26 mm; in test [14] it was 19-27 mm; in test [15], 16-21 mm.

With `CC1NCc2cc3c(cc2C1c1ccccc1)CNC(C)C3c1ccccc1.Cl.Cl` (centres unmarked) [1,2,3,4,6,7,8,9-octahydro-3,8-dimethyl-4,9-diphenyl-pyrido[3,4-g]isoquinoline dihydrochloride], the anti-parasitic activity result in test [16] was “has an anti-parasitic activity”.

Regarding `CC1(C)S[C@@H]2[C@H](NC(=O)Cc3ccccc3)C(=O)N2[C@H]1C(=O)O` [Penicillin], the MIC in test [6] was 8 to 16 µg/mL.
